Experiment [1] concerns E. coli. Nature of the experiment: Antimicrobial activity of supernatants from recombinant L. lactis (CFU/ml and OD600). The experiment is classed as cell-based, Escherichia coli. To be noted: 6 h post-inoculation; supernatant of recombinant L. lactis; pathogenic and non-pathogenic E. coli. How it is done: (§1) The loss of cell viability was monitored to determine the antimicrobial activity of the supernatants from the recombinant L. lactis strains. Briefly, 0.3 ml of fresh medium, individually inoculated with the target strains, was added to tubes containing 0.7 ml of the supernatants, to reach a final concentration of 1×10^3 cells/ml. As a control, a supernatant sample from the L. lactis strain containing only the expression vector pMSP3545 (C-SN) was used. Tubes were incubated at 37° C. with agitation. Samples were taken at 30 min, 2 and 6 h, and the number of colony forming units per ml (CFU/ml) was determined by plating 25 μl on LB agar plates. The plates were incubated for 16 h at 37° C., and the number of viable cells was assessed by counting CFUs. Additionally, the OD600 was monitored up to 15 h post-inoculation to follow the influence of AMPs on culture growth.
(§2) Growth of pathogenic and non-pathogenic E. coli strains was assessed in medium containing these AMP-SNs while only pathogenic Salmonella strains were tested. In all cases, AMP-SNs diluted 7:3 with LB were inoculated with each indicator strain and growth was monitored spectrophotometrically at 600 nm for 15 hr.

The test system of experiment [2] is S. typhimurium. Nature of the experiment: Antimicrobial activity of supernatants from recombinant L. lactis (culture titer). The experiment is classed as cell-based, Salmonella typhimurium. Particulars: FIG. 3a; by 2 h post-inoculation. The method, then: as §1, §2
In experiment [3] the test system is L. lactis IL1403. Nature of the experiment: MIC of synthetic AMPs, liquid growth inhibition microdilution assay. It is filed as cell-based, Lactococcus lactis. To be noted: synthetic peptide; for L. lactis growth inhibition: all concentrations tested (up to 1 mg/ml). How it is done: (§3) MICs of the synthetic AMPs were determined in triplicate by a liquid growth inhibition microdilution assays in flat-bottom sterile polypropylene 96-well plates (Maxisorp, Nunc, Roskilde, Denmark), in a final volume of 150 μl. The bacteria were diluted 2% in fresh media and grown to an OD600=0.5±0.05 (OD600=1≈10^9 cells/ml). The cells were diluted 50-fold to 10^7 cells/ml in fresh media. The AMP stocks were serially diluted (150 μl/well) in liquid growth media in a 96-well plate, covering a concentration range of 1,000 μg/ml-1 ng/ml. Briefly, 150 μl of the serially diluted AMPs were inoculated with 5 μl of the bacterial strains to achieve a final indicator concentration of 3×10^5 cells/ml. For each strain a row with no peptide was included as growth control, and for each test a row of medium-only wells was included as a sterility control. Plates were then incubated at 37° C. for 16-20 h without shaking, and growth inhibition was assessed measuring OD600 using a microplate reader (SpectraMax® Plus384; Molecular Devices, Sunnyvale, Calif., USA). MICs were identified as the lowest antimicrobial concentration where the OD600 […].
A general note: Broth dilution looks for growth in wells or tubes with falling amounts of substance.

Experiment [4] has as its system Salmonella. The experiment is described as follows: Antimicrobial activity of supernatants from recombinant L. lactis (CFU/ml and OD600). It is filed as cell-based. The method, then: as §1, §2
Experiment [5] deals with S. infantis. The experiment is described as follows: Antimicrobial activity of supernatants from recombinant L. lactis (culture titer). The experiment is classed as cell-based, Salmonella infantis. Particulars: FIG. 3a; by 2 h post-inoculation. How it is done: as §1, §2
In experiment [6] the test system is E. coli. It is filed as cell-based, Escherichia coli. How it is done: as §3

Converted amounts (≈) assume the structure as drawn. “Also recorded” adds a separate entry of the source. Residues, ends and D or L forms follow the SMILES beside them.

`CC[C@H](C)[C@H](NC(=O)CNC(=O)[C@H](CCCCN)NC(=O)[C@@H](NC(=O)[C@H](CC(C)C)NC(=O)[C@H](CO)NC(=O)CNC(=O)[C@H](CC(C)C)NC(=O)CNC(=O)[C@H](C)NC(=O)[C@H](CCCCN)NC(=O)[C@H](Cc1ccccc1)NC(=O)[C@@H](NC(=O)[C@H](CC(=O)O)NC(=O)[C@H](CCCCN)NC(=O)[C@H](CC(C)C)NC(=O)CN)[C@@H](C)CC)C(C)C)C(=O)N[C@@H](C)C(=O)N[C@@H](C)C(=O)N[C@@H](Cc1c[nH]cn1)C(=O)N[C@H](C(=O)N[C@@H](C)C(=O)N[C@@H](CC(N)=O)C(=O)O)C(C)C` [Alyteserin, Alyteserin-1a] (H-GLKDIFKAGLGSLVKGIAAHVAN-OH; N-terminus and C-terminus assumed): in experiment [1], the “E. coli culture density/concentration reduction relative to C-SN” value is recorded as 20 fold. Further, the “S. typhimurium culture density reduction relative to C-SN” value in experiment [2] is given as 10 fold. For the same compound, the “L. lactis growth inhibition” value in experiment [3] is listed as “not achieved”. For the same compound, the “Concentration up to which L. lactis remained viable” value in experiment [3] (highest concentration tested) is over 1 mg/mL. Besides, the “Salmonella growth (rate) reduction relative to C-SN” value in experiment [4] (10 to 15 h post-inoculation) is reported as 15%. The “S. infantis culture density/growth reduction relative to C-SN (fraction)” value in experiment [5] is reported as “about one-half”. Besides, the “MIC against indicator E. coli strains” value in experiment [6] came to 500 µg/mL (≈ 219 µM).

Consider `CC(C)C[C@H](NC(=O)[C@H](Cc1ccc(O)cc1)NC(=O)[C@@H]1CCCN1C(=O)[C@H](CCCNC(=N)N)NC(=O)[C@@H]1CCCN1C(=O)[C@H](CCCCN)NC(=O)[C@H](CC(=O)O)NC(=O)[C@@H]1CCCN1C(=O)[C@@H](N)CCCNC(=N)N)C(=O)N1CCC[C@H]1C(=O)N[C@@H](CCCNC(=N)N)C(=O)N1CCC[C@H]1C(=O)N[C@@H](CCCNC(=N)N)C(=O)N1CCC[C@H]1C(=O)N1CCC[C@H]1C(=O)N[C@@H](CCCNC(=N)N)C(=O)N1CCC[C@H]1C(=O)N[C@H](C(=O)N[C@@H](CCCNC(=N)N)C(=O)O)C(C)C` [A3APO, A3APO (single chain)] (H-RPDKPRPYLPRPRPPRPVR-OH; N-terminus and C-terminus assumed), for which, in experiment [2], the “S. typhimurium culture density reduction relative to C-SN” value is 4 fold. Moreover, in experiment [3], the “L. lactis growth inhibition” value is recorded as “not inhibited; also recorded: not achieved”. The “Salmonella growth inhibition at longer times” value in experiment [4] (10-15 h post-inoculation, versus C-SN) was “not observed”. The “S. infantis culture density reduction relative to C-SN” value in experiment [5] is listed as 20 fold.

The record behind these values is patent US10813956B2, “Methods for making and using antimicrobial peptides” (REGENTS OF THE UNIVERSITY OF MINNESOTA, priority 2012, dated 2020).
